We go through three molecules from patent publication US20140044709A1, “TREATMENT OF HER2-POSITIVE CANCER WITH PACLITAXEL AND TRASTUZUMAB-MCC-DM1” (priority 2010, published 2014).

Where two headings read alike, the source gives them in different places. Where only a bound is given, the exact number is not on record here.

The test system of data set [1] is patients with MBC. As to conditions: single agent, cited from earlier work.
A short description of data set [2]: Pertuzumab PK studies (Phase Ia and II). It counts as in vivo, human. The source says: A two-compartment model adequately described the concentration-time data with a terminal half-life of approximately 17 days for a typical patient.
Population PK modeling of data from Phase Ia and II studies supports the continued use of fixed non-weight based dosing in female patients.

The subject of data set [3] is patients with cancer. Nature of the data set: Pertuzumab across all studies, symptomatic cardiac failure. The settings on record: 4 of 842 patients across all studies. In kind it is in vivo, human. The source says: Two of these patients had MBC and had received prior anthracyclines and two patients had ovarian cancer patients, one of whom had cardiac risk factors (hypertension/hyperlipidemia).

Data set [4] has as its system patients with cancer. Nature of the data set: Completed Phase Ib combination studies of pertuzumab, LVEF. In kind it is in vivo, human. The settings on record: 2/35 patients. The source says: Grade 3-4 adverse events have been less frequently reported, with the more frequent events being Grade 3 diarrhea (5%), Grade 3 vomiting (2%), and Grade 3 nausea (<1%). Asymptomatic decreases in LVEF have been reported as adverse events in 14% of patients and were mainly (−70%) Grade 1 events.

For data set [5], the system named is patients with cancer. Put plainly: Pooled Phase II trials of single-agent pertuzumab, safety. In kind it is in vivo, human.
Data set [6] deals with patients with HER2-positive MBC.
The test system is the same in data set [7]. The source holds these as a separate data set.
Text: Patients with confirmed HER2-positive MBC whose disease had progressed on multiple lines of therapy, including HER2-directed therapy, were eligible.
Preliminary data in 112 evaluable patients are also available from the Phase II study.
Where [8] appears, read: pooled Phase II single agent (n=353), generally Grade 1-2.
Where [9] appears, read: subgroup with at least 6 months of follow-up or discontinued (n=76).

As for `CC(=O)O[C@H]1C(=O)[C@@]2(C)[C@H]([C@H](OC(=O)c3ccccc3)[C@]3(O)C[C@H](OC(=O)[C@H](O)[C@@H](NC(=O)c4ccccc4)c4ccccc4)C(C)=C1C3(C)C)[C@]1(OC(C)=O)CO[C@@H]1C[C@@H]2O` (relative stereo) [paclitaxel, β-(benzoylamino)-α-hydroxy-,6,12b-bis (acetyloxy)-12-(benzoyloxy)-2a,3,4,4a,5,6,9,10,11,12,12a,12b-dodecahydro-4,11-dihydroxy-4a,8,13,13-tetramethyl-5-oxo-7,11-methano-1H-cyclodeca(3,4)benz(1,2-b) oxet-9-ylester,(2aR-(2a-α,4-β,4a-β,6-β,9-α (α-R*,β-S*),11-α,12-α,12a-α,2b-α))-benzenepropanoic acid], the response rates is given as 29-63% in data set [1] (first-line treatment of MBC) and 21-56% in data set [1] (second-line treatment of MBC).

Regarding “pertuzumab: humanized monoclonal antibody that binds to extracellular domain II of HER2 and blocks its ability to dimerize with other HER receptors”, the “attaining steady-state trough and peak concentrations” value in data set [2] (loading dose 840 mg followed by 420 mg every 3 weeks) is given as “by the second cycle”. The terminal half-life result in data set [2] (two-compartment model, typical patient) was “approximately 17 days”. For the same molecule, the “symptomatic cardiac failure events” value in data set [3] was 0.5%. Moreover, the “LVEF declines of ≧10% to <50%” value in data set [4] is reported as 6%. Also, the “asymptomatic decreases in LVEF reported as adverse events” value in data set [5] (% of patients) came to 14%. For the same molecule, the “LVEF declines of ≧10% to <50%” value in data set [5] (completed Phase II single-agent studies, 21/302 patients) is on record as 7%. In addition, in data set [5] (pooled Phase II single agent), the “Grade 3 diarrhea” value is given as 5%, the “Grade 3 nausea” value is less than 1% and the “Grade 3 vomiting” value was determined as 2%. In data set [5] (setting [8]), this molecule came in with an abdominal pain of 24%, a diarrhea of 58%, a fatigue of 32% and a nausea of 31%. Moreover, in data set [5] (setting [8]), the rash stood at 17% and the vomiting is 22%. Also, in data set [5] (single agent, five Phase II studies), the tolerability result is “well tolerated”.

Consider T-DM1, for which the responses result is given as “three” in data set [6] (1.2 mg/kg weekly (n=3)), “two” in data set [6] (1.6 mg/kg weekly (n=3)) and “two” in data set [6] (2.0 mg/kg weekly (n=3)). For the same molecule, the “ORR in patients with measurable disease and confirmed HER2 status by central review” value in data set [6] (every 3-week schedule, 5/11) came out at 46%; in data set [6] (weekly schedule, 7/15), 47%. Moreover, the “6-month clinical benefit rate (CR+PR+SD>6 months)” value worked out at 54% in data set [6] (every 3-week schedule, 13/24) and 64% in data set [6] (weekly schedule, 18/28). Moreover, the “objective response rate (ORR)” value in data set [6] (every-3-week schedule, 24 patients) was determined as 21%; in data set [6] (weekly schedule, 28 patients), 54%. Moreover, the “responses confirmed according to RECIST” value in data set [6] (every-3-week schedule, of six responses) is on record as “five”; in data set [6] (weekly schedule, of 15 responses) it was 13. The “objective responses confirmed by follow-up imaging” value in data set [7] (107 efficacy-evaluable patients, 29 responses) is on record as 27.1%. In addition, the “objective responses (CRs and PRs)” value in data set [7] (107 efficacy-evaluable patients, 42 responses) is 39.3%. Also, the response rate in data set [7] (setting [9]) is listed as 43.4%. In addition, the “response rate confirmed by follow-up imaging” value in data set [7] (setting [9]) is listed as 38.2%.
